Reference: patent US12180146B2, “Antihypertensive polyol compound and derivative thereof” (TAO PHARMACEUTICAL (SUZHOU) CO., LTD, priority 2020, dated 2024)

Experiments:
[1] = test system: monocrotaline-induced pulmonary hypertension model rats (MCT-PAH); experiment: Monocrotaline-induced pulmonary hypertension model rats, aerosol inhalation treatment; type: in vivo, SD rats; conditions: 30 mg/kg, inh, 28 days
Method: A pulmonary hypertension animal model of SD rats was established by subcutaneous injection of monocrotaline (MCT). The compound 1 was administered by aerosol inhalation for treatment. The pulmonary artery hemodynamics and right heart hypertrophy index RVHI of rats were tested to determine whether compound 1 administered by aerosol inhalation has effects of improving monocrotaline-induced pulmonary hypertension.
(§1) SD rats (purchased from Shanghai Xipuer-Bikai Experimental Animal Co., Ltd.), male, weighing 180-200 g, were bred in an artificially controlled animal room with each 12 hours of light and darkness at a temperature of 20-25° C. and relative humidity of 50-60%, and allowed ad libitum to food and water. The rats were randomly divided into groups according to the experimental requirements, and kept separately in cages, with 3 to 4 rats per cage. All relevant operations of animal experiments are in compliance with the provisions of “Guidelines for the Management and Use of Laboratory Animals” of China.
In the second experiment, the rats were divided into 5 groups, namely the control group, model group, positive control Tyvaso (1.62 μg/kg) group, compound 1 (10 mg/kg) group and compound 1 (30 mg/kg) group. On the first day of the experiment, normal saline was injected subcutaneously into the back of the neck of the rats in the blank control group, and monocrotaline (Chengdu Purifa Biotechnology Co., Ltd.) solution was injected in the other groups at a dosage of 60 mg/kg. Compound 1 and Tyvaso were administered by aerosol inhalation, that is, the compound was firstly dissolved in physiological saline, and then the solution was prepared into an aerosol with a nebulizer to be inhaled into the mouth and nose of rats. The rats in the control group and the model group only inhaled an aerosol made of physiological saline. The rats were continuously administered for 28 days, and the concentration in the parentheses of the group name represents the administered concentration of the compound. Specific groupings can be found in Table 9. After the administration, the pulmonary vascular hemodynamics and RVHI were determined in the same way as the experiment method in Example 1.

[2] = test system: spontaneously hypertensive rats (SHR); experiment: Antihypertensive activity test: blood pressure and heart rate of spontaneously hypertensive rats (SHR); type: in vivo, rat; conditions: 200 mg/kg; for SHR blood pressure (SBP), time after administration 1 h / SHR blood pressure (SBP), time after administration 2 h / SHR blood pressure (SBP), time after administration 3 h / SHR blood pressure (SBP), time after administration 4 h / SHR blood pressure (SBP), time after administration 5 h / SHR blood pressure (SBP), time after administration 6 h: n = 8
Summary of the method: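 Spontaneously hypertensive rats received compound at 200 mg/kg. SBP and heart rate were measured before and after dosing. A drop in SBP of ≥20 mmHg from baseline counted as effective, and heart-rate changes were tested by paired t-test (P<0.05).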

[3] = test system: hypoxic pulmonary hypertension model rats; experiment: Hypoxic pulmonary hypertension model rats, oral (gavage) treatment for 28 days; type: in vivo, SD rats; conditions: hypoxic PAH rats, 200 mg/kg, po
Method: An animal model of pulmonary hypertension in SD rats was established in a hypoxic and low-pressure environment, and compound 1 was administered by gavage at the same time for treatment. The rat pulmonary artery hemodynamics and right heart hypertrophy index RVHI were measured to determine whether compound 1 has effects of improving hypoxic pulmonary hypertension.
as §1
The hypoxic PAH model was established by placing SD male rats in a fully-automatically regulated low-pressure hypoxic chamber (atmospheric pressure of about 50 kPa, oxygen concentration of 10%) for 8 hours a day for 28 days. The rats in the blank control group were kept in a normoxic environment.
The experimental rats of hypoxic PAH model were divided into 8 groups, namely blank control group, model group, Sidenafil (25 mg/kg) group, compound 1 (10 mg/kg) group, compound 1 (25 mg/kg) group, compound 1 (50 mg/kg) group, compound 1 (100 mg/kg) group, and compound 1 (200 mg/kg) group. The concentration in the parentheses of the group name represents the administration concentration of the compound or drug. In hypoxia-induced PAH experiments, Sidenafil is often used as a positive drug, which can reduce the pulmonary artery pressure in rats and reduce the right ventricular hypertrophy and vascular remodeling. In this experiment, 25 mg/kg of Sidenafil was used as the positive drug. Both the positive drugs Sidenafil and Compound 1 were dissolved in physiological saline and formulated into solutions of different concentrations according to different administration concentrations. The rats were continuously administered for 28 days with an administration volume of 5 ml/kg. Rats in the control and model groups were given the corresponding volume of physiological saline solution via gavage. The specific grouping can be found in Table 5.
After the administration was completed, the POWERLAB biological information acquisition and treatment system was started, and the right cardiac catheter filled with 0.2% heparin sodium (Beijing Solo Technology Co. Ltd.) in normal saline was connected to the pressure transducer and then zero-calibrationed for use. After 20% urethane (Shanghai Yuanye Biotechnology Co., Ltd.) solution was injected into the abdominal cavity of the rats for anesthesia, the right neck hair was shaved and the right jugular vein was isolated and exposed. […] After the typical right ventricular waveform appeared and stabilized for a while, the waveform was recorded, and then the pressure value was read by Powerlab biological information acquisition and processing system (ADInstruments).
After the pressure was measured, the catheter was taken out, and the rat was dissected immediately to take out the heart and lung tissues. The right ventricle (RV) and the left ventricle and interventricular septum (LV+S) were separated and weighed, and the right heart hypertrophy index RVHI=RV/(LV+S) was calculated. The lung lobe tissue from the right lower part of the lung was separated, soaked in 4% paraformaldehyde (Sigma) for about 1 week to prepare a paraffin section with a thickness of 3 μm, and then conducted to hematoxylin-eosin staining (Wuhan Guge Biotechnology Co., Ltd.). […]

[4] = test system: monocrotaline-induced pulmonary hypertension model rats (MCT-PAH); experiment: Monocrotaline-induced pulmonary hypertension model rats, oral (gavage) treatment for 21 days; type: in vivo, SD rats; conditions: 100 mg/kg
Source text: Monocrotaline (MCT) was subcutaneously injected to establish an animal model of pulmonary hypertension in SD rats. At the same time, compound 1 was given by gavage for treatment. The pulmonary artery hemodynamics and right heart hypertrophy index RVHI of the rates were detected to determine whether the oral administration of compound 1 has effects of improving Monocrotaline induces pulmonary hypertension.
as §1
During the experiment, SD rats were randomly divided into 4 groups: blank control group, pulmonary hypertension model group, Selexipag (1 mg/kg) treatment group and compound 1 (100 mg/kg) group with 6 rats in each group, and the concentration in brackets represents the administration concentration of the compound, in which Selexipag is a new oral long-acting prostacyclin receptor agonist discovered and synthesized by Japan New Drug Co., Ltd. On the first day of the experiment, normal saline was injected subcutaneously into the back of neck of rats in the blank control group, and monocrotaline (Chengdu Purifa Biotechnology Co., Ltd.) solution was injected in the rats in other groups at a dosage of 60 mg/kg. Both the positive drug, Selexipag and Compound 1 were administered by gavage. Selexipag and […] were dissolved in 0.5% CMC-Na solution. The rats were continuously administered for 21 days with a volume of […]. The rats in the control and model groups were given the corresponding volume of CMC-Na solution by gavage. Specific groupings can be found in Table 7.
After the administration, the pulmonary vascular hemodynamics and RVHI was determined according to the same experiment method as that in Example 1.

Row | SMILES | 2 × MT/ED [1] | RVHI [1] | RVSP [1] | mPAP [1] | SBP Difference before and after administration, 1 h [2] | SHR blood pressure (SBP), time after administration 1 h [2] | SBP Difference before and after administration, 2 h [2] | SHR blood pressure (SBP), time after administration 2 h [2] | SBP Difference before and after administration, 3 h [2] | SHR blood pressure (SBP), time after administration 3 h [2] | SBP Difference before and after administration, 4 h [2] | SHR blood pressure (SBP), time after administration 4 h [2] | SBP Difference before and after administration, 5 h [2] | SHR blood pressure (SBP), time after administration 5 h [2] | SBP Difference before and after administration, 6 h [2] | SHR blood pressure (SBP), time after administration 6 h [2] | 2 × MT/ED [3] | RVHI [3] | RVSP [3] | mPAP [3] | other results
1 | CCc1ccccc1C(O)CO (stereo not shown) [Compound 5] | 0.390 ± 0.038 | 0.324 ± 0.053 | 40.18 ± 4.62 mmHg | 11.06 ± 2.95 mmHg | 20 mmHg | 169 ± 6.32 mmHg | 15 mmHg | 174 ± 4.56 mmHg | 18 mmHg | 171 ± 9.34 mmHg | 16 mmHg | 173 ± 13.66 mmHg | 15 mmHg | 174 ± 15.9 mmHg | 11 mmHg | 178 ± 8.48 mmHg | 0.270 ± 0.012 | 0.271 ± 0.038 | 60.29 ± 3.87 mmHg | 15.76 ± 2.71 mmHg | 2 × MT/ED [4]: 0.29 ± 0.054; RVHI [4]: 0.35 ± 0.048; RVSP [4]: 44.32 ± 2.12 mmHg; mPAP [4]: 15.76 ± 2.71 mmHg
2 | OCC(O)c1cccc(F)c1 (stereo not shown) [Compound 7] | 0.375 ± 0.024 | 0.267 ± 0.013 | 44.61 ± 2.96 mmHg | 12.45 ± 2.41 mmHg | 16 mmHg | 177 ± 9.56 mmHg | 21 mmHg | 172 ± 7.36 mmHg | 22 mmHg | 171 ± 4.07 mmHg | 20 mmHg | 173 ± 6.18 mmHg | 18 mmHg | 175 ± 5.63 mmHg | 13 mmHg | 180 ± 7.61 mmHg | 0.291 ± 0.023 | 0.261 ± 0.037 | 62.78 ± 3.41 mmHg | 16.64 ± 2.08 mmHg | 2 × MT/ED [4]: 0.27 ± 0.045; RVHI [4]: 0.33 ± 0.058; RVSP [4]: 42.31 ± 2.78 mmHg; mPAP [4]: 15.67 ± 2.70 mmHg
3 | COc1cccc(C(O)CO)c1 (stereo not shown) [Compound 8] | 0.353 ± 0.043 | 0.306 ± 0.027 | 45.92 ± 3.47 mmHg | 14.16 ± 3.84 mmHg | 6 mmHg | 188 ± 12.4 mmHg | 13 mmHg | 181 ± 12.7 mmHg | 18 mmHg | 176 ± 11.1 mmHg | 18 mmHg | 176 ± 10.3 mmHg | 14 mmHg | 180 ± 11.3 mmHg | 8 mmHg | 186 ± 10.4 mmHg | 0.277 ± 0.022 | 0.296 ± 0.027 | 62.50 ± 2.91 mmHg | 17.19 ± 3.65 mmHg | SBP Difference before and after administration, 0 h ([2]; 0 h): 0 mmHg; 2 × MT/ED [4]: 0.31 ± 0.052; RVHI [4]: 0.33 ± 0.037; RVSP [4]: 45.97 ± 3.49 mmHg; mPAP [4]: 16.47 ± 3.07 mmHg
4 | CCc1cccc(C(CO)OC2OC(CO)C(O)C(O)C2O)c1 (stereo not shown) [Compound 16] | 0.357 ± 0.032 | 0.290 ± 0.054 | 41.44 ± 2.03 mmHg | 14.76 ± 1.98 mmHg | 9 mmHg | 174 ± 10.6 mmHg | 11 mmHg | 172 ± 10.4 mmHg | 10 mmHg | 173 ± 9.90 mmHg | 15 mmHg | 168 ± 6.61 mmHg | 11 mmHg | 172 ± 7.25 mmHg | 9 mmHg | 174 ± 12.1 mmHg | 0.289 ± 0.030 | 0.365 ± 0.031 | 65.83 ± 3.26 mmHg | 18.60 ± 3.60 mmHg | 2 × MT/ED [4]: 0.32 ± 0.066; RVHI [4]: 0.320 ± 0.031; RVSP [4]: 48.89 ± 6.64 mmHg; mPAP [4]: 16.74 ± 3.08 mmHg
